Measurements as given in PubChem BioAssay AID1259407 (Chemical Carcinogenesis Research Information System (CCRIS), 2018).
Activity calls are given as the source filed them. The rule behind the calls is not given here.

Test system: CCRIS mutagenicity, Ames/micronucleus/aberration tests
Test: CCRIS mutagenicity studies
[1] = Test System: AMES SALMONELLA TYPHIMURIUM, Strain/Indicator: TA97, Metabolic Activation: NONE, Method: STANDARD PLATE
[2] = Test System: AMES SALMONELLA TYPHIMURIUM, Strain/Indicator: TA98, Metabolic Activation: NONE, Method: STANDARD PLATE
[3] = Test System: AMES SALMONELLA TYPHIMURIUM, Strain/Indicator: TA100, Metabolic Activation: NONE, Method: STANDARD PLATE
[4] = Test System: AMES SALMONELLA TYPHIMURIUM, Strain/Indicator: TA104, Metabolic Activation: NONE, Method: STANDARD PLATE
[5] = Test System: AMES SALMONELLA TYPHIMURIUM, Strain/Indicator: TA98, Metabolic Activation: RAT, LIVER, S-9, AROCLOR 1254, Method: STANDARD PLATE
[6] = Test System: AMES SALMONELLA TYPHIMURIUM, Strain/Indicator: TA100, Metabolic Activation: RAT, LIVER, S-9, AROCLOR 1254, Method: STANDARD PLATE
[7] = Test System: Ames Salmonella typhimurium, Strain/Indicator: TA98, Metabolic Activation: None, Method: Standard plate
[8] = Test System: Ames Salmonella typhimurium, Strain/Indicator: TA100, Metabolic Activation: None, Method: Standard plate

CCC(CCOCn1cc[n+](C)c1/C=N/O)[N+](=O)[O-] (stereo not drawn)
mutagenic call [1]: inactive; negative | mutagenic call (Test System: AMES SALMONELLA TYPHIMURIUM, Strain/Indicator: TA97, Metabolic Activation: S-9, Method: STANDARD PLATE): inactive; negative | mutagenic call [2]: inactive; negative | mutagenic call (Test System: AMES SALMONELLA TYPHIMURIUM, Strain/Indicator: TA98, Metabolic Activation: S-9, Method: STANDARD PLATE): inactive; negative | mutagenic call [3]: inactive; negative | mutagenic call (Test System: AMES SALMONELLA TYPHIMURIUM, Strain/Indicator: TA100, Metabolic Activation: S-9, Method: STANDARD PLATE): inactive; negative | mutagenic call [4]: inactive; negative | mutagenic call (Test System: AMES SALMONELLA TYPHIMURIUM, Strain/Indicator: TA104, Metabolic Activation: S-9, Method: STANDARD PLATE): inactive; negative | mutagenic call (Test System: AMES SALMONELLA TYPHIMURIUM, Strain/Indicator: TA1535, Metabolic Activation: NONE, Method: STANDARD PLATE): inactive; negative | mutagenic call (Test System: AMES SALMONELLA TYPHIMURIUM, Strain/Indicator: TA1535, Metabolic Activation: S-9, Method: STANDARD PLATE): inactive; negative | mutagenic call (Test System: AMES SALMONELLA TYPHIMURIUM, Strain/Indicator: TA1537, Metabolic Activation: NONE, Method: STANDARD PLATE): inactive; negative | mutagenic call (Test System: AMES SALMONELLA TYPHIMURIUM, Strain/Indicator: TA1537, Metabolic Activation: S-9, Method: STANDARD PLATE): inactive; negative | mutagenic call (Test System: AMES SALMONELLA TYPHIMURIUM, Strain/Indicator: TA1538, Metabolic Activation: NONE, Method: STANDARD PLATE): inactive; negative | mutagenic call (Test System: AMES SALMONELLA TYPHIMURIUM, Strain/Indicator: TA1538, Metabolic Activation: S-9, Method: STANDARD PLATE): inactive; negative

ONc1ccc(Sc2ccccc2)cc1
mutagenic call (Test System: AMES SALMONELLA TYPHIMURIUM, Strain/Indicator: TA98(1,8-DNP6), Metabolic Activation: NONE, Method: STANDARD PLATE): active; positive | mutagenic call (Test System: AMES SALMONELLA TYPHIMURIUM, Strain/Indicator: TA98(NR), Metabolic Activation: NONE, Method: STANDARD PLATE): active; positive | mutagenic call [2]: active; positive

ClC(Cl)=C(Cl)c1cccc(Cl)c1Cl
mutagenic call [2]: inactive; negative | mutagenic call [5]: inactive; negative | mutagenic call [3]: inactive; negative | mutagenic call [6]: inactive; negative

C=C1C[C@@]23CC[C@H]4[C@@](C)(CCC[C@@]4(C)C(=O)O)[C@@H]2CC[C@]1(O[C@@H]1O[C@H](CO)[C@@H](O)[C@H](O[C@@H]2O[C@H](CO)[C@@H](O)[C@H](O)[C@H]2O)[C@H]1O[C@@H]1O[C@H](CO)[C@@H](O)[C@H](O)[C@H]1O)C3
mutagenic call (Test System: AMES SALMONELLA TYPHIMURIUM, Strain/Indicator: TM677, Metabolic Activation: RAT, LIVER, S-9, AROCLOR 1254, Method: PREINCUBATION): inactive; negative

CC(=O)N(O)c1ccc(Cl)c(Cl)c1
mutagenic call [1]: inactive; negative | mutagenic call (Test System: AMES SALMONELLA TYPHIMURIUM, Strain/Indicator: TA97, Metabolic Activation: RAT, LIVER, S-9, AROCLOR 1254, Method: STANDARD PLATE): inactive; negative | mutagenic call [2]: inactive; negative | mutagenic call [5]: inactive; negative | mutagenic call [3]: inactive; negative | mutagenic call [6]: inactive; negative | mutagenic call [4]: inactive; negative | mutagenic call (Test System: AMES SALMONELLA TYPHIMURIUM, Strain/Indicator: TA104, Metabolic Activation: RAT, LIVER, S-9, AROCLOR 1254, Method: STANDARD PLATE): inactive; negative

O=[N+]([O-])C(Cl)(Cl)Br
mutagenic call (Test System: Ames Salmonella typhimurium, Strain/Indicator: RSJ100, Metabolic Activation: None, Method: Standard plate): inactive; negative | mutagenic call (Test System: Ames Salmonella typhimurium, Strain/Indicator: RSJ100, Metabolic Activation: Rat, Liver, S-9, Aroclor, Method: Standard plate): active; positive | mutagenic call [7]: inactive; negative | mutagenic call (Test System: Ames Salmonella typhimurium, Strain/Indicator: TA98, Metabolic Activation: Rat, Liver, S-9, Aroclor, Method: Standard plate): inactive; negative | mutagenic call [8]: inactive; negative | mutagenic call (Test System: Ames Salmonella typhimurium, Strain/Indicator: TA100, Metabolic Activation: Rat, Liver, S-9, Aroclor, Method: Standard plate): inactive; negative | mutagenic call (Test System: Ames Salmonella typhimurium, Strain/Indicator: TA104, Metabolic Activation: None, Method: Standard plate): active; positive | mutagenic call (Test System: Ames Salmonella typhimurium, Strain/Indicator: TA104, Metabolic Activation: Rat, Liver, S-9, Aroclor, Method: Standard plate): active; positive | mutagenic call (Test System: Ames Salmonella typhimurium, Strain/Indicator: TPT100, Metabolic Activation: None, Method: Standard plate): inactive; negative

O=C(O)c1ccc([N+](=O)[O-])cc1[N+](=O)[O-]
mutagenic call (End Point: In vitro chromosomal aberrations, Test System: V79 Chinese hamster fibroblasts, Metabolic Activation: None): active; positive (structural changes) | mutagenic call (End Point: In vitro micronucleus, Test System: HepG2 human hepatoma cells, Metabolic Activation: None): active; positive | mutagenic call (Test System: AMES SALMONELLA TYPHIMURIUM, Strain/Indicator: TA98, Metabolic Activation: RAT, LIVER, S-9, AROCLOR, Method: PREINCUBATION): active; positive | mutagenic call (Test System: AMES SALMONELLA TYPHIMURIUM, Strain/Indicator: TA98, Metabolic Activation: RAT, LIVER, S-9, KANECHLOR 500, Method: PREINCUBATION): inactive; negative | mutagenic call (Test System: AMES SALMONELLA TYPHIMURIUM, Strain/Indicator: TA100, Metabolic Activation: RAT, LIVER, S-9, KANECHLOR 500, Method: PREINCUBATION): inactive; negative | mutagenic call [7]: active; positive | mutagenic call (Test System: Ames Salmonella typhimurium, Strain/Indicator: TA98, Metabolic Activation: Rat, Liver, S-9, Method: Standard plate): active; positive | mutagenic call (Test System: Ames Salmonella typhimurium, Strain/Indicator: TA98NR, Metabolic Activation: None, Method: Standard plate): active; positive, ta98nr is the nitroreductase-deficient derivative of ta98. | mutagenic call [8]: inactive; negative | mutagenic call (Test System: Ames Salmonella typhimurium, Strain/Indicator: TA100, Metabolic Activation: Rat, Liver, S-9, Method: Standard plate): inactive; negative

O[C@H]1c2ccccc2-c2cc3c(ccc4ccccc43)nc2[C@@H]1O
mutagenic call (Test System: AMES SALMONELLA TYPHIMURIUM, Strain/Indicator: TA98, Metabolic Activation: GUINEA PIG, LIVER, S-9, 3-METHYLCHOLANTHRENE, Method: STANDARD PLATE): inactive; negative | mutagenic call (Test System: AMES SALMONELLA TYPHIMURIUM, Strain/Indicator: TA100, Metabolic Activation: GUINEA PIG, LIVER, S-9, 3-METHYLCHOLANTHRENE, Method: STANDARD PLATE): inactive; negative | mutagenic call (Test System: CHINESE HAMSTER V-79, Strain/Indicator: V-79/6-THIOGUANINE, Metabolic Activation: GUINEA PIG, LIVER, S-9, 3-METHYLCHOLANTHRENE): active; positive

Oc1cccc2[nH]c3ccccc3c12
mutagenic call (Test System: CHINESE HAMSTER OVARY, Strain/Indicator: CHO-K1-BH4 (HGPRT)/6-THIOGUANINE, Metabolic Activation: RAT, LIVER, S-9, AROCLOR (4%)): active; positive
